From PubChem BioAssay AID1963827 (Molecular Pharmacology Branch, DTP, NCI, 2024) come the findings set out here.

Values joined by “and” are separate entries in the source; they are usually repeats but may differ in a detail not shown here. Identical values can stand only once.

For the experiment, the system named is 994946-033-R-J1-PDC complex spheroid viability. Briefly: Anticancer human tumor 994946-033-R-J1-PDC patient-derived melanoma cell line growth inhibition [POLQ]. The settings on record: for viability, T/C: stronger effect = lower value. As for the experimental part:
Multicellular complex tumor spheroid response to Polymerase (POL) inhibitors (novobiocin, ART-558, RP6685) in combination with a variety of drugs and investigational agents in selected tumor cell lines
The POL inhibitors (novobiocin, ART-558, and RP6685) were evaluated both individually and in combination with standard of care and investigational anticancer small molecules within a complex spheroid model of solid tumors. . Complex spheroids include a stromal component modeled by human endothelial cells (HUVEC) and fibroblasts modeled by human mesenchymal stem cells (MSCs). The concentration ranges selected for each drug and investigational agent were based upon clinically achievable concentrations if the clinical Cmax of the agent was known.
Compounds. The drugs and investigational agents: novobiocin (NSC847541), ART-558 (NSC835418), RP-6685 (NSC848927), peposertib (NSC802822), ceralasertib (NSC780249), elimusertib (NSC800525), camonsertib (NSC841442), AZD-1390 (NSC803789), olaparib (NSC753686), talazoparib (NSC767125), rucaparib (NSC756644), sotorasib (NSC818433), MRTX-1133 (NSC836407), SN-38 (NSC673596), topotecan (NSC609699), epotoside (NSC141540), doxorubicin (NSC123127), gemcitabine (NSC613327), 5-fluorouracil (NSC19893), paclitaxel (NSC125973), vemurafenib (NSC761431), MSA-2 (NSC828583), SN-011 (NSC837082), adavosertib (NSC754352), prexasertib (NSC758257), carboplatin (NSC241240) and oxaliplatin (NSC266046), were obtained from the National Cancer Institute (NCI) Developmental Therapeutics Program Chemical Repository (21). The FDA-approved anticancer drug set is available from the Developmental Therapeutics Program at https://dtp.cancer.gov/organization/dscb/obtaining/. […] The stock solutions were prepared in dimethyl sulfoxide (DMSO, Sigma-Aldrich, St. Louis, MO, cat. D2650), except for the platinum compounds which were prepared in saline (Quality Biological, Gaithersburg, MD, cat. 114-055-101), at 800-fold the tested concentration and stored at -70 degrees C prior to their use. All drugs and investigational agents were tested over a range starting from a high concentration at or near the clinical Cmax and decreasing in half-log increments. If the clinical Cmax for an agent had not been determined, the highest concentration tested was 10 microM, except for SN-38, which was tested at a high concentration of 1 microM.
Cell Culture. All cells were maintained in an incubator at 37 degrees C and 5% CO2 with 95% humidity. The PDC lines were cultured according to standard operating procedures established by the NCI PDMR (https://pdmr.cancer.gov). Table 3 of the manuscript, lists the cell lines along with the number of the three cell types plated to form the mct-spheroids and media for tumor cell growth. After thawing, all PDC lines, except 997537-175-T-J1-PDC and 415267-285-R-J2-PDC, were cultured in Matrigel-coated flasks prepared with a working solution of 1X Ham's F-12 nutrient mix, without supplementation (Thermo Fisher Scientific, cat. 11765054), 100 U/mL penicillin-streptomycin (Thermo Fisher Scientific, cat. 15140122), and 2.5% Matrigel (Corning Inc., Corning, NY, cat. 354248) for the first three passages. The two PDC lines 997537-175-T-J1-PDC and 415267-285-R-J2-PDC were cultured on uncoated flasks. The 857933-349-R-J2-PDC line was cultured in 6C/Colon 1B media containing advanced DMEM/F-12 (Thermo Fisher Scientific, cat. 12634028), 10 mM HEPES (Thermo Fisher Scientific, cat. 15630080), 1X GlutaMAX supplement (Thermo Fisher Scientific, cat. 35050061), 0.1 mg/mL primocin (InvivoGen, San Diego, CA, cat. ant-pm-2), 10% defined fetal bovine serum, heat inactivated (HyClone Laboratories Inc., Logan, UT, cat. SH30070.03HI), 50% L-WRN conditioned media (ATCC, cat. CRL-3276), 1.25 mM N-Acetyl-L-cysteine (Sigma-Aldrich, cat. A9165), 10 mM nicotinamide (Sigma-Aldrich, cat. N0636), 1X B-27 supplement (Thermo Fisher Scientific, cat. 17504044), 1X N-2 supplement (Thermo Fisher Scientific, cat. […]

Where [1] appears, read: curve of first compound, second compound 0.0316 µM.
The mark [2] stands for this setting: curve of first compound, second compound 0.1 µM.
Setting [3] is: curve of first compound, second compound 0.316 µM.
Where [4] appears, read: curve of first compound, second compound 1 µM.
Setting [5] is: curve of first compound, second compound 3.16 µM.
[6] abbreviates: curve of first compound, second compound 10 µM.
The mark [7] stands for this setting: second compound 0.0316 µM, first compound 0.0316 µM.
[8] abbreviates: second compound 0.0316 µM, first compound 0.1 µM.
[9] abbreviates: second compound 0.0316 µM, first compound 0.316 µM.
The mark [10] stands for this setting: second compound 0.0316 µM, first compound 1 µM.
Setting [11] is: second compound 0.0316 µM, first compound 3.16 µM.
Where [12] appears, read: second compound 0.0316 µM, first compound 10 µM.
Setting [13] is: second compound 0.1 µM, first compound 0.0316 µM.
Where [14] appears, read: second compound 0.1 µM, first compound 0.1 µM.
[15] abbreviates: second compound 0.1 µM, first compound 0.316 µM.
Setting [16] is: second compound 0.1 µM, first compound 1 µM.
Setting [17] is: second compound 0.1 µM, first compound 3.16 µM.
[18] abbreviates: second compound 0.1 µM, first compound 10 µM.
Setting [19] is: second compound 0.316 µM, first compound 0.0316 µM.
The mark [20] stands for this setting: second compound 0.316 µM, first compound 0.1 µM.
The mark [21] stands for this setting: second compound 0.316 µM, first compound 0.316 µM.
Where [22] appears, read: second compound 0.316 µM, first compound 1 µM.
Where [23] appears, read: second compound 0.316 µM, first compound 3.16 µM.
[24] abbreviates: second compound 0.316 µM, first compound 10 µM.
[25] abbreviates: second compound 1 µM, first compound 0.0316 µM.
[26] abbreviates: second compound 1 µM, first compound 0.1 µM.
[27] abbreviates: second compound 1 µM, first compound 0.316 µM.
Where [28] appears, read: second compound 1 µM, first compound 1 µM.
The mark [29] stands for this setting: second compound 1 µM, first compound 3.16 µM.
The mark [30] stands for this setting: second compound 1 µM, first compound 10 µM.
[31] abbreviates: second compound 3.16 µM, first compound 0.0316 µM.
Setting [32] is: second compound 3.16 µM, first compound 0.1 µM.
Setting [33] is: second compound 3.16 µM, first compound 0.316 µM.
The mark [34] stands for this setting: second compound 3.16 µM, first compound 1 µM.
The mark [35] stands for this setting: second compound 3.16 µM, first compound 3.16 µM.
Setting [36] is: second compound 3.16 µM, first compound 10 µM.
[37] abbreviates: second compound 10 µM, first compound 0.0316 µM.
[38] abbreviates: second compound 10 µM, first compound 0.1 µM.
Setting [39] is: second compound 10 µM, first compound 0.316 µM.
Where [40] appears, read: second compound 10 µM, first compound 1 µM.
Where [41] appears, read: second compound 10 µM, first compound 3.16 µM.
The mark [42] stands for this setting: second compound 10 µM, first compound 10 µM.
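Also: spheroids exposed to drugs for 7 days.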

For orientation: IC50 means the concentration that inhibits the measured activity by half. One may read the viability, T/C as the result in the treated group divided by that in the control group, in per cent. As to `CNCc1ccc(-c2[nH]c3cc(F)cc4c3c2CCNC4=O)cc1` + Cc1cccc(N(C)C(=O)C2C(O)CCN2c2nc(C)cc(C(F)(F)F)c2C#N)c1, the IC50 reads like this: under setting [1], over 10000 nM; under setting [2], over 10000 nM; under setting [3], over 10000 nM; under setting [4], over 10000 nM; under setting [5], over 10000 nM; under setting [6], over 10000 nM. For the same compound, the viability, T/C is 88.4% under setting [7]; 103% under setting [8]; 132% under setting [9]; 77.5% under setting [10]; 94.8% under setting [11]; 78.8% under setting [12]. The viability, T/C was 85.5% under setting [13]; 117% under setting [14]; 102% under setting [15]; 81.4% under setting [16]; 92% under setting [17]; 92.7% under setting [18]. Further, the viability, T/C is, setting by setting: under setting [19], 113%; under setting [20], 115%; under setting [21], 90.9%; under setting [22], 78.8%; under setting [23], 92.8%; under setting [24], 106%. For the same compound, the viability, T/C reads like this: under setting [25], 105%; under setting [26], 101%; under setting [27], 89.9%; under setting [28], 73.1%; under setting [29], 112%; under setting [30], 104%. Further, the viability, T/C reads like this: under setting [31], 107%; under setting [32], 90.5%; under setting [33], 109%; under setting [34], 100%; under setting [35], 109%; under setting [36], 89.4%. Moreover, the viability, T/C runs as follows: under setting [37], 103%; under setting [38], 79%; under setting [39], 118%; under setting [40], 91.2%; under setting [41], 86.8%; under setting [42], 83.2%.

Take `CCCS(=O)(=O)Nc1ccc(F)c(C(=O)c2c[nH]c3ncc(-c4ccc(Cl)cc4)cc23)c1F`: the viability, T/C reads like this: (compound 0.0316 µM) 77.1% and 111% and 98.1%; (compound 0.1 µM) 88.1% and 101% and 79.8%; (compound 0.316 µM) 101% and 93.3% and 103%; (compound 1 µM) 123% and 91.3% and 106%; (compound 3.16 µM) 93.8% and 70.6% and 69.6%; (compound 10 µM) 15.7% and 25% and 19.7%. Also, the IC50 (curve of compound) was 6050 nM and 5240 nM and 4970 nM.

In the case of `COc1cccc2c1C(=O)c1c(O)c3c(c(O)c1C2=O)CC(O)(C(=O)CO)CC3OC1CC(N)C(O)C(C)O1` (configuration not stated), the viability, T/C reads like this: (compound 0.0316 µM) 24.5% and 30.4% and 28.5%; (compound 0.1 µM) 5.96% and 8.53% and 11.6%; (compound 0.316 µM) 2.17% and 5.76% and 2.69%; (compound 1 µM) 1.78% and 1.25% and 2.38%; (compound 3.16 µM) 2.29% and 1.69% and 2.17%; (compound 10 µM) 2.7% and 0.94% and 0.62%. Also, the IC50 (curve of compound) was under 31.6 nM.

`COc1cc(C2c3cc4c(cc3C(OC3OC5COC(C)OC5C(O)C3O)C3COC(=O)C23)OCO4)cc(OC)c1O` (configuration not stated): the viability, T/C reads like this: (compound 0.0316 µM) 92.1% and 89.8% and 87.4%; (compound 0.1 µM) 56.1% and 74.7% and 56.7%; (compound 0.316 µM) 42.6% and 37.3% and 54.9%; (compound 1 µM) 36.4% and 29.4% and 38.1%; (compound 3.16 µM) 15% and 14.1% and 14.8%; (compound 10 µM) 5.65% and 9.75% and 6.75%. Also, the IC50 (curve of compound) was 212 nM and 240 nM and 313 nM.

Take `O=c1[nH]cc(F)c(=O)[nH]1`: the viability, T/C (compound 0.0316 µM) is 115% and 112% and 96.8%; the viability, T/C (compound 0.1 µM) was 95.1% and 107% and 103%; the viability, T/C (compound 0.316 µM) was 71.1% and 97.4% and 103%; the viability, T/C (compound 1 µM) was 63.1% and 67.9% and 60.2%; the viability, T/C (compound 3.16 µM) was 50.7% and 73.6% and 64%; the viability, T/C (compound 10 µM) is 45.7% and 47.6% and 54.8%. Further, for the setting “curve of compound”, the IC50 is 4220 nM and > 10000 nM.

Consider `COc1cc(C2c3cc4c(cc3C(OC3OC5COC(C)OC5C(O)C3O)C3COC(=O)C23)OCO4)cc(OC)c1O` (configuration not stated) + Nc1ccc(C#CCN(C(=O)Cc2ncc(C(F)(F)F)cc2C(F)(F)F)c2ccc(F)cc2)nn1, for which the IC50 is, setting by setting: under setting [1], 725 nM; under setting [2], 348 nM; under setting [3], 363 nM; under setting [4], 395 nM; under setting [5], 369 nM; under setting [6], 879 nM. In addition, the viability, T/C is 70.3% under setting [7]; 67.4% under setting [8]; 68.8% under setting [9]; 42% under setting [10]; 19.9% under setting [11]; 8.78% under setting [12]. The viability, T/C reads like this: under setting [13], 86.1%; under setting [14], 73.3%; under setting [15], 42.3%; under setting [16], 43%; under setting [17], 16.5%; under setting [18], 6.05%. The viability, T/C by setting is: under setting [19], 87.1%; under setting [20], 69.9%; under setting [21], 54%; under setting [22], 32.4%; under setting [23], 20.6%; under setting [24], 9.78%. For the same compound, the viability, T/C runs as follows: under setting [25], 111%; under setting [26], 77%; under setting [27], 55.1%; under setting [28], 35.4%; under setting [29], 17.9%; under setting [30], 10.3%. In addition, the viability, T/C was 84.8% under setting [31]; 70.5% under setting [32]; 48% under setting [33]; 41.3% under setting [34]; 15.3% under setting [35]; 5.78% under setting [36]. The viability, T/C runs as follows: under setting [37], 77.2%; under setting [38], 70.4%; under setting [39], 58.7%; under setting [40], 53.3%; under setting [41], 14.5%; under setting [42], 7.34%.
